Measurements from US11932653B2, “Lycorine derivative, and pharmaceutical composition and use thereof” (priority 2018, dated 2024).
Values belong to the compound of their own block, whether it stands above or below them.

Experiments:
EV71 = assay: In-vitro experiment against EV71 virus (RD cells, MTT); assay type: cell-based; settings: for EC50: Enterovirus A, RD cells infected with 100x TCID50 EV71, compound added after 2 hrs, MTT at 48 hrs; for SI: selectivity index, EV71, RD cells
Description: (§1) RD cells were seeded into a 96-well plate (10^4 cells/well), and infected with 100× TCID50 of EV71 viruses. After 2 hrs, various concentrations of the derivative were added. […] Uninfected cells were also given various concentrations of the derivative to determine the CC50.

[1] = Cytotoxicity in uninfected RD cells (CC50, MTT); assay type: cell-based; settings: human, Table 1
Description: as §1
(§2) RD cells were seeded into a 96-well plate (10^4 cells/well), and infected with 100×TCID50 of CAV16 viruses. After 2 hrs, various concentrations of the derivative were added. […] Uninfected cells were also given various concentrations of the derivative to determine the CC50.

CAV16 = assay: In-vitro experiment against Coxsackievirus A16 (CAV16) (RD cells, MTT); assay type: cell-based, Coxsackievirus Virus A16 (CAV16); settings: for EC50: Coxsackievirus, RD cells infected with 100x TCID50 CAV16, compound added after 2 hrs, MTT at 48 hrs; for SI: selectivity index, CAV16, RD cells
Description: as §2

[2] = Toxicity test in ICR mice after single administration by intraperitoneal injection; assay type: in vivo; settings: for minimum lethal dose: 10-day-old ICR mice, single intraperitoneal injection, observed 14 days; for MTD at 14 days: both sexes, ICR; for MTD at 14 days / Weight on day 1 after administration: mouse, in vivo, ip
Description: 22 10-day-old ICR mice were randomly assigned to 17 groups, and given Compound 6 once by intraperitoneal injection at a dosage of 0.625, 1.25, 2.5, 5, 10, 20, 40, 80, 100, 160, 200, 250, 300, 470, 500, 1000, or 2000 mg/kg. 1-2 animals were included in each group, and the male and female mice were administered alternately. […] The dead animals are necropsied and the changes in main organs were observed. On day 1 after administration, the weight of the animals in the 160 mg/kg group is decreases by 0.3 g, and the weight of the animals in the 0.625, 1.25, 2.5, 5, 10, 20, 40, 80, 100 mg/kg group is increased, compared to the day of administration. Under the conditions in this experiment, ICR mice were given Compound 6 once by intraperitoneal injection. The minimum lethal dose was 200 mg/kg and the maximum tolerated dose was 160 mg/kg.
24 10-day-old ICR mice were randomly assigned to 19 groups, and given Compound 6 once by intraperitoneal injection at a dosage of 0.625, 1.25, 2.5, 5, 10, 20, 40, 60, 80, 100, 120, 136, 160, 270, 320, 500, 690, 1000, or 2000 mg/kg. 1-2 animals were included in each group, and the male and female mice were administered alternately. […] The dead animals are necropsied and the changes in main organs were observed. […] Under the conditions in this experiment, ICR mice were given Compound 20 once by intraperitoneal injection.

[3] = tested on: Salmonella typhimurium TA100; assay: Test of reverse mutation in histidine-deficient Salmonella typhimurium, strain TA100; assay type: cell-based; settings: for Number of colonies TA100(+S9): solvent control 170.7 ± 10.9
Description: (§3) The mutagenic effect of Compound 6 on the strains TA100 and TA102 was detected by determining the reverse mutation in histidine-deficient Salmonella typhimurium by pre-loaded culture dish method. The dosage of Compound 6 is 8, 40, 200, 1000, or 5000 μg/dish under activated and non-activated conditions, and the mutagenic effects on TA100 and TA102 were tested.

[4] = tested on: Salmonella typhimurium TA102; assay: Test of reverse mutation in histidine-deficient Salmonella typhimurium, strain TA102; assay type: cell-based; settings: for Number of colonies TA102(−S9): solvent control 225.0 ± 7.5; for Number of colonies TA102(+S9): solvent control 236.5 ± 5.0
Description: as §3

[5] = 8-5000 μg/dish, activated and non-activated conditions

EC50 (CAV16): 570 nM
SMILES: O=C(CSc1ccccc1)OC1C(O)C=C2CCN3Cc4cc5c(cc4C1C23)OCO5 (stereo not drawn) [Compound 2, 1-phenylthioacetyl-lycorine]
EC50 (EV71): 1650 nM
SI (EV71): 69.35
CC50 at 48 h [1]: 114000 nM
SI (CAV16): 200.73

SMILES: O=C(COc1ccc(Cl)cc1)OC1C(O)C=C2CCN3Cc4cc5c(cc4C1C23)OCO5 (stereo not drawn) [Compound 3, 1-(4-chloro-phenoxyacetyl)-lycorine]
EC50 (EV71): 1280 nM
SI (EV71): 139.85
CC50 at 48 h [1]: 154000 nM

SMILES: O=C(CCCOc1ccccc1)OC1C(O)C=C2CCN3Cc4cc5c(cc4C1C23)OCO5 (stereo not drawn) [Compound 4, 1-(4-phenoxybutyryl)-lycorine]
EC50 (EV71): 1760 nM
SI (EV71): 84.84
CC50 at 48 h [1]: 150000 nM

SMILES: O=C(CCOc1ccccc1)OC1C(O)C=C2CCN3Cc4cc5c(cc4C1C23)OCO5 (stereo not drawn) [Compound 5, 1-(3-phenoxypropionyl)-lycorine]
EC50 (EV71): 1450 nM
SI (EV71): 92.43
CC50 at 48 h [1]: 134000 nM

SMILES: O=C(COc1ccc(F)cc1)OC1C(O)C=C2CCN3Cc4cc5c(cc4C1C23)OCO5 (stereo not drawn) [Compound 6, 1-(4-fluoro-phenoxyacetyl)-lycorine]
minimum lethal dose [2]: 200 mg/kg
MTD at 14 days [2]: 160 mg/kg
Weight on day 1 after administration ([2]; 0.625 mg/kg): 7.3
Weight on day 1 after administration ([2]; 5 mg/kg): 6.9
Weight on day 1 after administration ([2]; 10 mg/kg): 6.5
Weight on day 1 after administration ([2]; 20 mg/kg): 7.5
Weight on day 1 after administration ([2]; 40 mg/kg): 7.7
Weight on day 1 after administration ([2]; 80 mg/kg): 7.3
Weight on day 1 after administration ([2]; 100 mg/kg): 7.3
Weight on day 1 after administration ([2]; 160 mg/kg): 6.3
Number of colonies TA100(−S9) ([3]; 8 μg/dish, solvent control 165.3 ± 10.7): 152.7 ± 9.4
Number of colonies TA100(+S9) ([3]; 8 μg/dish): 159.3 ± 11.3
Number of colonies TA100(−S9) ([3]; 40 μg/dish, solvent control 165.3 ± 10.7): 141.8 ± 5.9
Number of colonies TA100(+S9) ([3]; 40 μg/dish): 158.7 ± 10.7
Number of colonies TA100(−S9) ([3]; 200 μg/dish, solvent control 165.3 ± 10.7): 152.7 ± 9.5
Number of colonies TA100(+S9) ([3]; 200 μg/dish): 158.5 ± 11.5
Number of colonies TA100(−S9) ([3]; 1000 μg/dish, solvent control 165.3 ± 10.7): 113.0 ± 14.2
Number of colonies TA100(+S9) ([3]; 1000 μg/dish): 127.7 ± 10.1
Number of colonies TA100(−S9) ([3]; 5000 μg/dish, solvent control 165.3 ± 10.7): 110.5 ± 7.8
Number of colonies TA100(+S9) ([3]; 5000 μg/dish): 114.7 ± 3.8
mutagenic effect on TA100 [3, 5]: negative
EC50 (EV71): 1270 nM
SI (EV71): 103.30
CC50 at 48 h [1]: 131000 nM
Number of colonies TA102(−S9) ([4]; 8 μg/dish): 223.0 ± 9.1
Number of colonies TA102(+S9) ([4]; 8 μg/dish): 235.0 ± 9.6
Number of colonies TA102(−S9) ([4]; 40 μg/dish): 205.0 ± 14.6
Number of colonies TA102(+S9) ([4]; 40 μg/dish): 222.5 ± 9.3
Number of colonies TA102(−S9) ([4]; 200 μg/dish): 192.8 ± 18.6
Number of colonies TA102(+S9) ([4]; 200 μg/dish): 208.3 ± 6.8
Number of colonies TA102(−S9) ([4]; 1000 μg/dish): 182.3 ± 10.3
Number of colonies TA102(+S9) ([4]; 1000 μg/dish): 195.2 ± 8.6
Number of colonies TA102(−S9) ([4]; 5000 μg/dish): 147.2 ± 20.3
Number of colonies TA102(+S9) ([4]; 5000 μg/dish): 180.7 ± 11.7
mutagenic effect on TA102 [4, 5]: negative

SMILES: O=C(COc1ccc(Br)cc1)OC1C(O)C=C2CCN3Cc4cc5c(cc4C1C23)OCO5 (stereo not drawn) [Compound 7, 1-(4-bromo-phenoxyacetyl)-lycorine]
EC50 (EV71): 1470 nM
SI (EV71): 70.36
CC50 at 48 h [1]: 103000 nM

SMILES: O=C(COc1ccc([N+](=O)[O-])cc1)OC1C(O)C=C2CCN3Cc4cc5c(cc4C1C23)OCO5 (stereo not drawn) [Compound 8, 1-(4-nitro-phenoxyacetyl)-lycorine]
EC50 (EV71): 1230 nM
SI (EV71): 85.67
CC50 at 48 h [1]: 105000 nM

SMILES: O=C(COc1ccc(I)cc1)OC1C(O)C=C2CCN3Cc4cc5c(cc4C1C23)OCO5 (stereo not drawn) [Compound 9, 1-(4-iodo-phenoxyacetyl)-lycorine]
EC50 (EV71): 1840 nM
SI (EV71): 54.15
CC50 at 48 h [1]: 99600 nM

SMILES: CC(C)c1ccc(OCC(=O)OC2C(O)C=C3CCN4Cc5cc6c(cc5C2C34)OCO6)cc1 (stereo not drawn) [Compound 10, 1-(4-isopropyl-phenoxyacetyl)-lycorine]
EC50 (EV71): 1670 nM
SI (EV71): 60.63
CC50 at 48 h [1]: 101000 nM

SMILES: O=C(CSc1ccc(Cl)cc1)OC1C(O)C=C2CCN3Cc4cc5c(cc4C1C23)OCO5 (stereo not drawn) [Compound 11, 1-(4-chloro-phenylthioacetyl)-lycorine]
EC50 (EV71): 1460 nM
SI (EV71): 89.40
CC50 at 48 h [1]: 131000 nM

SMILES: Cc1ccc(OCC(=O)OC2C(O)C=C3CCN4Cc5cc6c(cc5C2C34)OCO6)cc1 (stereo not drawn) [Compound 12, 1-(4-methylphenoxyacetyl)-lycorine]
EC50 (EV71): 1530 nM
SI (EV71): 87.73
CC50 at 48 h [1]: 134000 nM

SMILES: Cc1ccc(OCC(=O)OC2C(O)C=C3CCN4Cc5cc6c(cc5C2C34)OCO6)c(C)c1 (stereo not drawn) [Compound 13, 1-(2,4-dimethyl-phenoxyacetyl)-lycorine]
EC50 (EV71): 1560 nM
SI (EV71): 95.33
CC50 at 48 h [1]: 149000 nM

SMILES: O=C(COc1ccccc1Cl)OC1C(O)C=C2CCN3Cc4cc5c(cc4C1C23)OCO5 (stereo not drawn) [Compound 14, 1-(2-chloro-phenoxyacetyl)-lycorine]
EC50 (EV71): 1630 nM
SI (EV71): 89.10
CC50 at 48 h [1]: 145000 nM

SMILES: O=C(COc1cccc(Cl)c1)OC1C(O)C=C2CCN3Cc4cc5c(cc4C1C23)OCO5 (stereo not drawn) [Compound 15, 1-(3-chloro-phenoxyacetyl)-lycorine]
EC50 (EV71): 1730 nM
SI (EV71): 87.61
CC50 at 48 h [1]: 152000 nM

SMILES: O=C(COc1ccc(Cl)cc1Cl)OC1C(O)C=C2CCN3Cc4cc5c(cc4C1C23)OCO5 (stereo not drawn) [Compound 16, 1-(2,4-dichloro-phenoxyacetyl)-lycorine]
EC50 (EV71): 1710 nM
SI (EV71): 75.94
CC50 at 48 h [1]: 130000 nM

SMILES: O=C(COc1ccccc1[N+](=O)[O-])OC1C(O)C=C2CCN3Cc4cc5c(cc4C1C23)OCO5 (stereo not drawn) [Compound 17]
EC50 (EV71): 1710 nM
SI (EV71): 91.37
CC50 at 48 h [1]: 156000 nM

SMILES: COc1ccc(OCC(=O)OC2C(O)C=C3CCN4Cc5cc6c(cc5C2C34)OCO6)cc1 (stereo not drawn) [Compound 18, 1-(4-methoxy-phenoxyacetyl)-lycorine]
EC50 (EV71): 1650 nM
SI (EV71): 97.65
CC50 at 48 h [1]: 161000 nM

SMILES: O=C(COc1ccc2ccccc2c1)OC1C(O)C=C2CCN3Cc4cc5c(cc4C1C23)OCO5 (stereo not drawn) [Compound 19, 1-(2-naphthyl-phenoxyacetyl)-lycorine]
EC50 (EV71): 1970 nM
SI (EV71): 82.94
CC50 at 48 h [1]: 163000 nM

SMILES: O=C(CSc1ccc(F)cc1)OC1C(O)C=C2CCN3Cc4cc5c(cc4C1C23)OCO5 (stereo not drawn) [Compound 20, 1-(4-fluoro-phenylthioacetyl)-lycorine]
minimum lethal dose [2]: 160 mg/kg
MTD at 14 days [2]: 136 mg/kg
Weight on day 1 after administration ([2]; 0.625 mg/kg): 5.2
Weight on day 1 after administration ([2]; 1.25 mg/kg): 6.6
Weight on day 1 after administration ([2]; 5 mg/kg): 6.4
Weight on day 1 after administration ([2]; 10 mg/kg): 6.5
Weight on day 1 after administration ([2]; 20 mg/kg): 5.9
Weight on day 1 after administration ([2]; 40 mg/kg): 6.8
Weight on day 1 after administration ([2]; 60 mg/kg): 7
Weight on day 1 after administration ([2]; 100 mg/kg): 6.8
Weight on day 1 after administration ([2]; 136 mg/kg): 6.7

SMILES: O=C(CCc1ccccc1)OC1C(O)C=C2CCN3Cc4cc5c(cc4C1C23)OCO5 (stereo not drawn) [Compound 23, 1-(3-phenylpropionyl)-lycorine]
EC50 (EV71): 1730 nM
SI (EV71): 74.28
CC50 at 48 h [1]: 129000 nM

SMILES: O[C@H]1[C@H]2c3cc4c(cc3CN3CCC(=C[C@@H]1O)[C@H]23)OCO4 [Lycorine]
EC50 (EV71): 2260 nM
SI (EV71): 46.24
CC50 at 48 h [1]: 105000 nM
EC50 (CAV16): 1570 nM
SI (CAV16): 66.57

SMILES: [N-]=[N+]=[N-].[Na+] [NaN3, reference compound]
Number of colonies TA100(−S9) ([3]; 1.5 μg/dish, positive control): >1000
